Source: the supplement of paper PMC8967900

How the values were obtained:
Assay in all cases: selective drug sensitivity score (sDSS, relative to normal bone marrow) (sDSS (score)); higher = more potent and effective on the cell line relative to normal bone marrow cells
Conditions in all cases: 72 h
PEER = system: PEER
REH = system: REH
HAL-01 = system: HAL-01
KASUMI-9 = system: KASUMI-9
MOLT-16 = system: MOLT-16
MHH-CALL-3 = system: MHH-CALL-3
MOLT-14 = system: MOLT-14
697 = system: 697
COG-LL-332h = system: COG-LL-332h
ALL-PO = system: ALL-PO
COG-LL-355h = system: COG-LL-355h
TMD5 = system: TMD5
MHH-CALL-4 = system: MHH-CALL-4
COG-LL-394h = system: COG-LL-394h
CCRF-CEM = system: CCRF-CEM
NALM-6 = system: NALM-6
P12-ICHIKAWA = system: P12-ICHIKAWA
380 = system: 380
TANOUE = system: TANOUE
COG-LL-319h = system: COG-LL-319h
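Also: ALL cell lines in 384-well plates, five doses spanning 10,000-fold, each plate scaled between vehicle and 100 µmol/L benzalkonium chloride controls, sDSS an adapted area-under-curve metric.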

SMILES | selective drug sensitivity score (PEER) | selective drug sensitivity score (REH) | selective drug sensitivity score (HAL-01) | selective drug sensitivity score (KASUMI-9) | selective drug sensitivity score (MOLT-16) | selective drug sensitivity score (MHH-CALL-3) | selective drug sensitivity score (MOLT-14) | selective drug sensitivity score 697 | selective drug sensitivity score (COG-LL-332h) | selective drug sensitivity score (ALL-PO) | selective drug sensitivity score (COG-LL-355h) | selective drug sensitivity score (TMD5) | selective drug sensitivity score (MHH-CALL-4) | selective drug sensitivity score (COG-LL-394h) | selective drug sensitivity score (CCRF-CEM) | selective drug sensitivity score (NALM-6) | selective drug sensitivity score (P12-ICHIKAWA) | selective drug sensitivity score 380 | selective drug sensitivity score (TANOUE) | selective drug sensitivity score (COG-LL-319h)
Cc1c(-c2ccc(N3CCc4cccc(C(=O)Nc5nc6ccccc6s5)c4C3)nc2C(=O)O)cnn1CC12CC3CC(CC(C3)C1)C2 (top concentration 1000 nM) | 19.3 | -2.26 | -1.86 | -2.26 | 0.54 | 9.54 | 6.34 | -1.76 | 9.14 | -1.86 | 18.2 | -2.26 | 2.24 | 7.94 | 18.6 | 5.84 | 27.7 | 3.94 | -2.26 | 19.4
O=C(NOC[C@H](O)CO)c1ccc(F)c(F)c1Nc1ccc(I)cc1F (top concentration 1000 nM) | 0.94 | -4.16 | 6.34 | 4.44 | -1.36 | 14.9 | 8.84 | 0.14 | -2.26 | 4.34 | 6.94 | 2.94 | 6.24 | -0.26 | 1.14 | 7.54 | 0.84 | 2.24 | -2.46 | 2.44
CO[C@@H](C)Cn1c(=O)n(C)c2cnc3ccc(-c4cncc(C(C)(C)O)c4)cc3c21 (top concentration 2500 nM) | 3.38 | 6.78 | 1.98 | 8.68 | 11.9 | -1.42 | 2.08 | 9.78 | 4.18 | 4.88 | 3.88 | -1.22 | 1.08 | -1.82 | 8.48 | 3.68 | 1.38 | 10.3 | -5.12 | 5.48
Cc1cccc(CC(=O)N2CCc3c2ccc(-c2cn(C)c4ncnc(N)c24)c3F)n1 (top concentration 2500 nM) | 7.02 | 9.62 | 2.92 | 2.92 | 5.62 | -0.68 | 1.22 | 3.42 | 0.32 | 0.22 | -0.28 | -0.68 | 4.22 | 5.42 | -0.08 | 4.32 | 2.82 | -0.68 | 2.52 | 0.52
CNC(=O)c1ccccc1Nc1nc(Nc2ccc3c(c2OC)CCC[C@H](N2CCN(CCO)CC2)C3)ncc1Cl (top concentration 5000 nM) | -1.44 | -2.24 | 0.46 | 0.26 | 2.06 | -1.94 | 1.56 | 2.86 | -1.54 | 5.76 | 6.96 | -2.74 | -0.94 | 3.16 | -2.54 | -1.04 | -2.84 | 2.06 | -5.34 | 8.86
COc1cc2ncnc(Oc3cccc(NC(=O)Nc4cc(C(C)(C)C(F)(F)F)on4)c3)c2cc1OC (top concentration 10000 nM) | 17.8 | 5 | 3.4 | 7.5 | 2.5 | 0 | 0.8 | 10.4 | 18.4 | 11.5 | 4.9 | 15.7 | 3.4 | 3.9 | 0.1 | 0 | 5.9 | 0 | 0 | 12.3
C[C@@H](Oc1cc(-n2cnc3ccc(CN4CCN(C)CC4)cc32)sc1C(N)=O)c1ccccc1C(F)(F)F (top concentration 10000 nM) | 30 | 21.8 | 16.6 | 26 | 20.2 | 8.92 | 24.8 | 20.5 | 20.5 | 22 | 5.62 | 11.8 | -3.18 | 3.22 | 22.7 | 15.8 | 21.9 | 25.5 | -11.2 | 14.7
Nc1nccc(-c2c(-c3ccc(F)cc3)ncn2C2CCCCC2)n1 (top concentration 10000 nM) | 1.4 | 0.8 | 1 | 1.7 | 2.6 | 0.1 | 0 | 4.8 | 3.1 | 3 | 0 | 1.5 | 0 | 0 | 0.7 | 0 | 0.1 | 1.4 | 0 | 2.5
O=C(O)c1ccc(-c2c[nH]c3ncc(-c4ccccc4)cc23)cc1C1CCCC1 (top concentration 10000 nM) | 2.56 | -1.44 | 4.26 | 0.66 | 3.66 | 3.76 | 2.46 | 0.96 | 2.86 | 5.86 | -0.44 | 1.66 | -1.44 | -1.44 | 3.66 | -1.44 | 3.46 | 0.86 | -1.44 | 1.36
C[C@@H]1CN(CC(=O)Nc2ccc3c(c2)Cc2cccc(-c4cc(=O)cc(N5CCOCC5)o4)c2S3)C[C@H](C)O1 (top concentration 25000 nM) | 2.62 | 6.12 | -0.18 | 1.22 | 0.32 | -2.18 | 0.32 | 0.42 | 2.02 | 2.02 | 3.02 | -2.18 | 0.12 | -0.68 | 2.62 | 2.92 | -0.58 | -1.88 | -2.18 | 6.72
COc1ccc2[nH]cc(/C=C3\C(=O)Nc4ccc(NC(=O)CCN5CCCCC5)cc43)c2c1 (top concentration 50000 nM) | 2.18 | -1.62 | -3.42 | 1.28 | -2.32 | -5.32 | 0.98 | -0.02 | 4.68 | 5.18 | 0.28 | 0.28 | -1.82 | 0.18 | -0.02 | -2.12 | -0.52 | -4.62 | -2.22 | -4.42
Cc1nn(C)c(COc2ccc(N3CCN(S(=O)(=O)N(C)C)CC3)cc2)c1-c1cccc2c(CCCOc3cccc4ccccc34)c(C(=O)O)n(CCN3CCOCC3)c12 (top concentration 50000 nM) | 10.2 | 8.46 | 2.46 | 5.66 | 12.6 | 2.56 | 6.96 | 4.36 | 4.16 | 8.86 | 15.3 | 4.26 | 5.06 | 4.56 | 9.06 | 4.26 | 6.76 | 0.86 | 2.56 | 5.26
C[C@H](Nc1ncnc2[nH]cnc12)c1cc2ccc(F)cc2nc1-c1ccccn1 [AMG319] (top concentration 1000 nM) | -1.42 | -1.02 | 10.4 | 1.18 | -1.42 | -0.42 | -1.42 | 0.18 | -1.42 | -1.42 | 4.58 | -1.42 | 0.68 | -1.42 | -1.42 | 3.68 | -1.42 | -1.02 | -0.12 | 10.1
C=CCn1c(=O)c2cnc(Nc3ccc(N4CCN(C)CC4)cc3)nc2n1-c1cccc(C(C)(C)O)n1 [AZD1775] (top concentration 10000 nM) | 12.2 | 13.5 | 8.34 | 14.6 | 17.5 | 5.64 | 14.3 | 15.4 | 11 | 7.04 | 7.24 | 4.94 | 1.94 | 5.54 | 14.2 | 11 | 13.6 | 10.8 | -1.66 | 18.8
NC(=O)Nc1cc(-c2cccc(F)c2)sc1C(=O)N[C@H]1CCCNC1 [AZD7762] (top concentration 1000 nM) | -0.7 | -1.1 | 3.5 | 4.1 | -1.5 | 1.9 | 0.6 | 2.6 | -0.8 | 9.2 | -0.1 | -1.1 | 0.3 | -3.5 | -0.1 | 0.6 | -0.5 | 1 | -5 | 2.8
Cc1cc([C@@H](C)Nc2ccccc2C(=O)O)c2nc(N3CCOCC3)cc(=O)n2c1 [AZD-6482] (top concentration 2500 nM) | -0.28 | 7.82 | 6.62 | 5.82 | -0.28 | 0.42 | -0.28 | 3.12 | 1.32 | 3.92 | 6.92 | -0.28 | 1.92 | -0.28 | 2.02 | 5.62 | 0.42 | 4.72 | 0.02 | 13.6
CN(C)Cc1c(C(=O)NCCOc2ccc(C(=O)NO)cc2)oc2ccccc12 [Abexinostat] (top concentration 10000 nM) | 6.16 | 2.26 | -0.44 | 8.26 | 5.66 | 15.4 | 7.36 | 6.96 | 0.36 | 6.76 | 3.36 | 5.36 | 6.36 | 3.86 | 4.56 | 2.76 | 4.66 | 7.56 | -7.54 | 8.36
S=C(NCc1ccc2c(c1)OCO2)N1CCN(c2ncnc3c2oc2ccccc23)CC1 [Amuvatinib] (top concentration 10000 nM) | 9.36 | 5.56 | 2.96 | 1.26 | 8.36 | 5.06 | 3.56 | 7.86 | 2.96 | 1.16 | 2.06 | 4.16 | 2.16 | 7.36 | 1.56 | 3.86 | 7.46 | 3.76 | 6.16 | 5.96
